Assay in all cases: relative viability (nuclei count vs DMSO), 5 days (fraction); higher = more cells survive
Compound in the assay “Vemurafenib + Trametinib”: CCCS(=O)(=O)Nc1ccc(F)c(C(=O)c2c[nH]c3ncc(-c4ccc(Cl)cc4)cc23)c1F [Vemurafenib] + CC(=O)Nc1cccc(-n2c(=O)n(C3CC3)c(=O)c3c(Nc4ccc(I)cc4F)n(C)c(=O)c(C)c32)c1 [Trametinib] (partner 0.02 µM)
Put shortly: (§1)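 Lung cancer cell lines in 1536-well plates got either a single drug or a fixed anchor-drug dose together with five library-drug doses (not always all listed) in √10 steps, by pin tool, on the day after seeding. Nuclei were counted after 5 days, and relative viability is the treated-to-vehicle ratio of nuclei counts. Values are medians of duplicate plates.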

Compound in the assay “OSI-027 + Alpelisib”: COc1cccc2cc(-c3nc([C@H]4CC[C@H](C(=O)O)CC4)n4ncnc(N)c34)[nH]c12 [OSI-027] + Cc1nc(NC(=O)N2CCC[C@H]2C(N)=O)sc1-c1ccnc(C(C)(C)C(F)(F)F)c1 [Alpelisib] (partner 2 µM)
The gist of the method:
as §1

Compound in the assay “Alpelisib + Luminespib”: Cc1nc(NC(=O)N2CCC[C@H]2C(N)=O)sc1-c1ccnc(C(C)(C)C(F)(F)F)c1 [Alpelisib] + CCNC(=O)c1noc(-c2cc(C(C)C)c(O)cc2O)c1-c1ccc(CN2CCOCC2)cc1 [Luminespib] (partner 0.01 µM)
The gist of the method: as §1

Compound in the assay “Alpelisib + Lapatinib”: Cc1nc(NC(=O)N2CCC[C@H]2C(N)=O)sc1-c1ccnc(C(C)(C)C(F)(F)F)c1 [Alpelisib] + CS(=O)(=O)CCNCc1ccc(-c2ccc3ncnc(Nc4ccc(OCc5cccc(F)c5)c(Cl)c4)c3c2)o1 [Lapatinib] (partner 2 µM)
Put shortly: as §1

For the cell line NCI-H2347, the relative viability with Vemurafenib + Trametinib (first compound 0.03162 µM) came to 0.266; with Vemurafenib + Trametinib (first compound 0.1 µM), 0.215; in the assay with Vemurafenib + Trametinib (first compound 0.3162 µM), 0.263; with Vemurafenib + Trametinib (first compound 1 µM), 0.251; in the assay with OSI-027 + Alpelisib (first compound 0.01 µM) it was 1.11; in the assay with OSI-027 + Alpelisib (first compound 0.03162 µM), 0.899. For the same cell line, the relative viability was 0.974 with OSI-027 + Alpelisib (first compound 0.1 µM); 0.717 in the assay with OSI-027 + Alpelisib (first compound 0.3162 µM); 0.416 in the assay with OSI-027 + Alpelisib (first compound 1 µM); 0.476 in the assay with Alpelisib + Luminespib (first compound 0.04 µM); 0.632 with Alpelisib + Luminespib (first compound 0.1265 µM); 0.626 with Alpelisib + Luminespib (first compound 0.4 µM). Besides, the relative viability was 0.503 in the assay with Alpelisib + Luminespib (first compound 1.265 µM); 0.522 with Alpelisib + Luminespib (first compound 4 µM); 0.991 with Alpelisib + Lapatinib (first compound 0.04 µM); 0.989 with Alpelisib + Lapatinib (first compound 0.1265 µM); 1.33 with Alpelisib + Lapatinib (first compound 0.4 µM); 0.873 with Alpelisib + Lapatinib (first compound 1.265 µM). For the same cell line, in the assay with Alpelisib + Lapatinib (first compound 4 µM), the relative viability worked out at 0.83.
With LC-2-ad, the relative viability with Vemurafenib + Trametinib (first compound 0.03162 µM) amounted to 0.868; in the assay with Vemurafenib + Trametinib (first compound 0.1 µM), 0.815; with Vemurafenib + Trametinib (first compound 0.3162 µM) it was 0.998; in the assay with Vemurafenib + Trametinib (first compound 1 µM) it was 0.921; with OSI-027 + Alpelisib (first compound 0.01 µM), 0.886; with OSI-027 + Alpelisib (first compound 0.03162 µM) it was 0.876. Moreover, the relative viability with OSI-027 + Alpelisib (first compound 0.1 µM) stood at 0.723; with OSI-027 + Alpelisib (first compound 0.3162 µM), 0.74; with OSI-027 + Alpelisib (first compound 1 µM), 0.304; with Alpelisib + Luminespib (first compound 0.04 µM), 0.985; with Alpelisib + Luminespib (first compound 0.1265 µM), 0.97; with Alpelisib + Luminespib (first compound 0.4 µM) it was 1.3. The relative viability with Alpelisib + Luminespib (first compound 1.265 µM) was determined as 0.846; in the assay with Alpelisib + Luminespib (first compound 4 µM), 0.827; with Alpelisib + Lapatinib (first compound 0.04 µM), 0.958; in the assay with Alpelisib + Lapatinib (first compound 0.1265 µM), 1.01; in the assay with Alpelisib + Lapatinib (first compound 0.4 µM) it was 0.975; in the assay with Alpelisib + Lapatinib (first compound 1.265 µM), 0.645. Besides, the relative viability in the assay with Alpelisib + Lapatinib (first compound 4 µM) came out at 0.542.
On to COR-L 105, for which the relative viability with Vemurafenib + Trametinib (first compound 0.03162 µM) worked out at 0.418; with Vemurafenib + Trametinib (first compound 0.3162 µM) it was 0.428; with Vemurafenib + Trametinib (first compound 1 µM) it was 0.655; with OSI-027 + Alpelisib (first compound 0.01 µM) it was 1.05; in the assay with OSI-027 + Alpelisib (first compound 0.03162 µM) it was 0.85; with OSI-027 + Alpelisib (first compound 0.1 µM), 0.963. Moreover, the relative viability turned out to be 0.658 in the assay with OSI-027 + Alpelisib (first compound 0.3162 µM); 0.524 in the assay with OSI-027 + Alpelisib (first compound 1 µM); 0.768 with Alpelisib + Luminespib (first compound 0.04 µM); 0.565 with Alpelisib + Luminespib (first compound 0.1265 µM); 0.956 with Alpelisib + Luminespib (first compound 0.4 µM); 0.59 in the assay with Alpelisib + Luminespib (first compound 1.265 µM). Besides, the relative viability with Alpelisib + Luminespib (first compound 4 µM) is 0.86; in the assay with Alpelisib + Lapatinib (first compound 0.04 µM), 0.338; with Alpelisib + Lapatinib (first compound 0.1265 µM) it was 0.391; with Alpelisib + Lapatinib (first compound 0.4 µM), 0.364; in the assay with Alpelisib + Lapatinib (first compound 1.265 µM) it was 0.287; with Alpelisib + Lapatinib (first compound 4 µM) it was 0.337.
In the case of NCI-H838, the relative viability with Vemurafenib + Trametinib (first compound 0.03162 µM) is 0.527; with Vemurafenib + Trametinib (first compound 0.1 µM), 0.528; in the assay with Vemurafenib + Trametinib (first compound 0.3162 µM), 0.257; with Vemurafenib + Trametinib (first compound 1 µM) it was 0.548; in the assay with OSI-027 + Alpelisib (first compound 0.01 µM), 0.996; in the assay with OSI-027 + Alpelisib (first compound 0.03162 µM), 0.847. The relative viability with OSI-027 + Alpelisib (first compound 0.1 µM) is 0.632; in the assay with OSI-027 + Alpelisib (first compound 0.3162 µM), 0.498; with OSI-027 + Alpelisib (first compound 1 µM), 0.275; in the assay with Alpelisib + Luminespib (first compound 0.04 µM), 0.429; with Alpelisib + Luminespib (first compound 0.1265 µM), 0.387; with Alpelisib + Luminespib (first compound 0.4 µM) it was 0.274. In addition, the relative viability with Alpelisib + Luminespib (first compound 1.265 µM) was found to be 0.221; with Alpelisib + Luminespib (first compound 4 µM), 0.299; with Alpelisib + Lapatinib (first compound 0.04 µM), 0.877; with Alpelisib + Lapatinib (first compound 0.1265 µM), 1.03; with Alpelisib + Lapatinib (first compound 0.4 µM) it was 1.01; with Alpelisib + Lapatinib (first compound 1.265 µM), 0.774. Moreover, the relative viability in the assay with Alpelisib + Lapatinib (first compound 4 µM) came out at 0.696.

For the origin of these results see the supplement of paper PMC10307832.
